Measurements as given in patent US20260235618A1, “MICROBEADS WITH RATIOMETRIC LANTHANIDE ENCODING FOR DRUG SCREENING” (CZ Biohub SF, LLC, priority 2022, published 2026).
Entries after “also recorded” stand apart in the source; their conditions may differ.

Target: Cdc20 (Homo sapiens, UniProt Q12834)
Test: Multiplexed binding assay of Cdc20 to peptides on spectrally encoded beads, with and without small molecule (per-bead fluorescence of labeled antibody)
Details: bead-bound D-Box peptides; per-bead fluorescence intensity of fluorescently-labeled antibody recognizing bound Cdc20; vs control without Apcin (FIG. 2)
Excerpt: FIG. 2 provides data illustrating the effect of the small molecule Apcin on the binding between Cdc20 and different peptide sequences. Binding was quantified by measuring the per-bead fluorescence intensity of a fluorescently-labeled antibody that recognizes bound Cdc20. […] The control is the left bar for each of the peptides.
In one illustrative assay, a library of peptide-bound microbeads is generated by synthesizing binding site peptides directly on microbeads. Beads are pooled and then incubated with the protein of interest in the presence or absence of a modulator or candidate biding agent. The beads are then typically washed and the amount of signal from a label directly or indirectly attached to the protein of interest that is bound to each bead is determined. […]
For illustration, binding site peptides can be from proteins that are binding partners of any protein of interest, e.g., a signaling protein. […] In some embodiments, such a bead, or pool of such beads, is deposited in a compartment, e.g., a microwell plate such as a 96-well plate, with a signaling protein and a candidate agent to be evaluated, such as a small molecule. […] Use of multiple peptide sequences (e.g., for different binding sites or different affinities) can serve as an internal control and provide the ability to quantitatively assess a loss of signal without concerns regarding assay quality (e.g., FIG. 2). […]

Cdc20, sequence (Q12834 whole entry, species assumed): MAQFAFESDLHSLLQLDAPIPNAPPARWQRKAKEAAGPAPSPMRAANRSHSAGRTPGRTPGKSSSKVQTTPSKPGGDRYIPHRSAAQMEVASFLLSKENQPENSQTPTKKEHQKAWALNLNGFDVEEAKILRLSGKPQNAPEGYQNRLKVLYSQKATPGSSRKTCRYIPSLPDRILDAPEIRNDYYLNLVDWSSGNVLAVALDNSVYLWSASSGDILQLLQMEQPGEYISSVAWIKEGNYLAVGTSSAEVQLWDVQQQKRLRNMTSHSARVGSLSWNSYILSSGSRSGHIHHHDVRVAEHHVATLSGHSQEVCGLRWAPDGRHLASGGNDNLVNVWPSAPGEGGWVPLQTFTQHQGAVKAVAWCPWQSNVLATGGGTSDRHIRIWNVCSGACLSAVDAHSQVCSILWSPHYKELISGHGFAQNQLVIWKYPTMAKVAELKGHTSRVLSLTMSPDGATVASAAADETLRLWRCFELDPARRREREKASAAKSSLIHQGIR

SMILES: Cc1ncc([N+](=O)[O-])n1CCOC(=O)NC(Nc1ncccn1)C(Cl)(Cl)Cl (stereo not shown) [Apcin]
- Effect on binding between Cdc20 and D-Box-containing peptide sequences: blocks the binding site between Cdc20 and D-Box-containing sequences; also recorded: selectively prevented the binding of Cdc20 to D-Box-containing peptides
